Reference: ChEMBL document CHEMBL1146458, “Five new maleic and succinic acid derivatives from the mycelium of Antrodia camphorata and their cytotoxic effects on LLC tumor cell line” (2004)
Values after ≈ are worked out from the molar mass of the structure shown.

Assay: Cytotoxicity against mouse LLC cells after 48 hrs by SRB assay
Assay type: functional
Details: Lewis lung carcinoma, read-out: ED50 (the source's name)

| SMILES | EC50 [µg/mL] |
| --- | --- |
| CC(C)=CCOc1ccc(C2=C(CC(C)C)C(=O)OC2=O)cc1 | > 20 |
| CC(C)=CCOc1ccc(C2=C(CC(C)C)C(=O)NC2=O)cc1 | 3.6 (≈ 11.5 µM) |
| CC(C)=CCOc1ccc(C2=C(CC(C)C)C(=O)N(O)C2=O)cc1 | 7.5 (≈ 22.8 µM) |
| CC(C)=CCOc1ccc([C@H]2C(=O)N(O)C(=O)[C@@H]2CC(C)C)cc1 (relative stereo) | > 10 |
| COc1cccc2c1C(=O)c1c(O)c3c(c(O)c1C2=O)C[C@@](O)(C(=O)CO)C[C@@H]3O[C@H]1C[C@H](N)[C@H](O)[C@H](C)O1 [DOXORUBICIN] | 0.14 (≈ 0.258 µM) |
